Legend:
[1] = system: T1, human serum albumin (HSA); experiment: Fluorescence quenching of HSA by flavonoids (Stern–Volmer and modified Stern–Volmer); type: binding; settings: for albumin‐bound fraction: estimated from K, 1:1 stoichiometry, 1 μM flavonoid, 600 μM HSA (≈ 40 g/L)
T1 construct: purchased Merck (Darmstadt, Germany) A1653
Experimental: Fluorescence spectroscopic measurements were performed in phosphate‐buffered saline (PBS, pH 7.4) at room temperature, using a Hitachi F‐4500 spectrofluorometer (Tokyo, Japan). Increasing amounts of flavonoids (final concentrations: 0, 1, 2, 3, 4, 5, and 6 μM) were added to HSA (2 μM), after which fluorescence emission spectra were collected (λ ex = 295 nm). UV–Vis spectra of MYR, M3′S, AMP, and A4′S were also recorded, and their inner‐filter effects were corrected as it has been reported.[37], [38] Flavonoid–HSA interactions were evaluated based on the graphical application of the Stern–Volmer equation[18], [39]: (1) I0/I=1+KSV×Q where K SV is the Stern–Volmer quenching constant, I 0 denotes the emission intensity of HSA alone at 340 nm, I marks the emission signal of albumin at 340 nm in the presence of flavonoids, while [Q] is the molar concentration of the quencher. Thereafter, binding constants (K) of the formed complexes were determined based on the modified Stern–Volmer equation[39], [40]: (2) I0/I0−I=1/fa×K×1/Q+1/fa where f a is the fraction of the accessible fluorophore.
Using the binding/association constants and assuming 1:1 stoichiometry of complex formation, we estimated the bound fractions of M3′S and A4′S in the circulation based on the following equation[41]: (3) K=FH/F×HSA where [F], [HSA], and [FH] are the molar concentrations of the unbound free flavonoid, the unbound free HSA, and the flavonoid–HSA complex, respectively. In these calculations, we hypothesized the presence of 1.0 μM levels of M3′S or A4′S in the presence of 600 μM (≈ 40 g/L) of HSA.

OATP2B1 = target: T2, OATP2B1 (Homo sapiens, UniProt O94956); experiment: Uptake of flavonoids by A431-OATP2B1 versus mock cells (APB fluorescence); type: cell-based; settings: for cellular flavonoid level in OATP2B1‐overexpressing versus mock control cells: 10 μM flavonoid, 15 min, 37°C; for substrate of OATP2B1: conclusion from uptake studies
T2 construct: expressed in transfected cells; host or cells: A431
T2 sequence (O94956 1-709): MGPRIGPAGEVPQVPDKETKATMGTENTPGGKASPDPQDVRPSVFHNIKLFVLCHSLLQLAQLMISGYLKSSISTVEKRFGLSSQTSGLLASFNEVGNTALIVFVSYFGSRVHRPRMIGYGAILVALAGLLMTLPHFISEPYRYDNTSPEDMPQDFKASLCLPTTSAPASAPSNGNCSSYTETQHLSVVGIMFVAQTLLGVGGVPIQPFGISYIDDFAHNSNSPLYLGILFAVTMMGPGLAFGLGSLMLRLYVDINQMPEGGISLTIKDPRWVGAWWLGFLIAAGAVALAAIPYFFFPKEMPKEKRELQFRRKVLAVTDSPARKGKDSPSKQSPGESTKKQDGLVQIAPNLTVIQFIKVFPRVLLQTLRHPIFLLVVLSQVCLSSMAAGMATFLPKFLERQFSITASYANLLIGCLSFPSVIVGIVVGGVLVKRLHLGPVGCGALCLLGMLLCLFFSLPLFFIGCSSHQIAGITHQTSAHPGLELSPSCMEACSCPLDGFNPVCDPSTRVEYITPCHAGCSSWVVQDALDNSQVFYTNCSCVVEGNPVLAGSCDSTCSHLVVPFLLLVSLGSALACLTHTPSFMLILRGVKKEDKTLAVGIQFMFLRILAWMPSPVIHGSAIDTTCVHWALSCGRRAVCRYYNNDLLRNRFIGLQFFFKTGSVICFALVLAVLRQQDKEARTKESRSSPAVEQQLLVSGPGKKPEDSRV
Experimental: (§1) Direct uptake of AMP, MYR, and their sulfate metabolites were examined in A431 cells overexpressing OATP1B1 or OATP2B1, and in their mock‐transfected controls using APB as a fluorescence enhancer. One day before the uptake measurements, the cells were seeded onto 96‐well plates at a density of 80 000 cells/well in DMEM (200 μL). The following day, the cell culture medium was removed, and the cells were rinsed thrice with PBS (200 μL). Thereafter, the cells were preincubated with HBSS (50 μL) for 5 min at 37°C. The uptake reaction was initiated by the addition of a further 50 μL of HBSS containing AMP, MYR, or their sulfate conjugates (10 μM). After incubating for 15 min at 37°C, the reaction was stopped by removing the supernatant and rinsing the cells three times with ice‐cold PBS. Then PBS buffer (200 μL) containing APB (250 μg/mL) and BSA (1 mg/mL) was added to each well.[35] The fluorescence was read using an Enspire plate reader using the wavelengths listed in Section 2.7.
(§2) The concentration‐dependent uptake of M3′S was also tested under the same conditions, except the cells were incubated with 0–10 μM M3′S for 2 min (OATP1B1) or 5 min (OATP2B1).
(§3) To test the effect of BSP (a known inhibitor of OATPs[44]) on the cellular uptake of M3′S, cells were preincubated with HBSS buffer (50 μL) with or without BSP (20 μM) for 5 min at 37°C. Thereafter, we added 50 μL of HBSS containing M3′S (final concentration: 2 μM), and cells were further incubated at 37°C for 2 min (OATP1B1) or 5 min (OATP2B1). The reaction was stopped by removing the supernatant. After washing the cells with ice‐cold PBS, a PBS buffer with APB/BSA was added. Fluorescence was determined by applying an Enspire plate reader at excitation/emission wavelengths of 480/540 nm.

OATP1B1 = target: T3, OATP1B1 (Homo sapiens, UniProt Q9Y6L6); experiment: Uptake of flavonoids by A431-OATP1B1 versus mock cells (APB fluorescence); type: cell-based; settings: for cellular flavonoid level in OATP1B1‐overexpressing versus mock control cells: 10 μM flavonoid, 15 min, 37°C; for substrate of OATP1B1: conclusion from uptake studies
T3 construct: expressed in transfected cells; host or cells: A431
T3 sequence (Q9Y6L6 1-691): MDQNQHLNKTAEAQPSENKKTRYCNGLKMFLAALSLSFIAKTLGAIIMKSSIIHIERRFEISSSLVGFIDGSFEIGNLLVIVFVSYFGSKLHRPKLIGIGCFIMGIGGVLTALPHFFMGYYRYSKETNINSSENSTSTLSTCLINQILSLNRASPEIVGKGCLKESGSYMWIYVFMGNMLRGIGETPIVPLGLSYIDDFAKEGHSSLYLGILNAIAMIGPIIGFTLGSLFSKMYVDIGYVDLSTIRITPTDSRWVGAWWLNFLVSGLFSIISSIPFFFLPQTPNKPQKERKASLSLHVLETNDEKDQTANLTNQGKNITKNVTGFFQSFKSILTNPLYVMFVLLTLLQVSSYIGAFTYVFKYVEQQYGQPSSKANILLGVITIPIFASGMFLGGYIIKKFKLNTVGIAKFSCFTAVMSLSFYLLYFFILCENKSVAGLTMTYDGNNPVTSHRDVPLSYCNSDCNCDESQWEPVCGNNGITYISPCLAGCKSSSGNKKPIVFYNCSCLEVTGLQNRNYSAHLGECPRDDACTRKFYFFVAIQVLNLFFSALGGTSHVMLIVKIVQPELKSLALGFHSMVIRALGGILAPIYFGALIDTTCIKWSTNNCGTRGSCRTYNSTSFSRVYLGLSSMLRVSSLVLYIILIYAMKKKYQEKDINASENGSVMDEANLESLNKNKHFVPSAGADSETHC
Experimental: as §1, §2, §3

| SMILES | albumin‐bound fraction [1] | cellular flavonoid level in OATP2B1‐overexpressing versus mock control cells (OATP2B1) | substrate of OATP2B1 (OATP2B1) | cellular flavonoid level in OATP1B1‐overexpressing versus mock control cells (OATP1B1) | substrate of OATP1B1 (OATP1B1) | binding constant (K) of flavonoid–HSA complex ([1]; modified Stern–Volmer equation, HSA 2 μM, flavonoid 0–6 μM, PBS pH 7.4, λex 295 nm, λem 340 nm) | concentration‐dependent uptake in OATP2B1‐overexpressing cells (OATP2B1; 0–10 μM, 5 min) | concentration‐dependent uptake in OATP1B1‐overexpressing cells (OATP1B1; 0–10 μM, 2 min) |
| --- | --- | --- | --- | --- | --- | --- | --- | --- |
| O=C1c2c(O)cc(O)cc2OC(c2cc(O)c(OS(=O)(=O)O)c(O)c2)C1O (stereo not drawn) [A4′S, ampelopsin‐4′‐O‐sulfate] | ~94% | did not show statistically significant differences | not substrates | did not show statistically significant differences | not substrates | – | – | – |
| O=C1c2c(O)cc(O)cc2O[C@H](c2cc(O)c(O)c(O)c2)[C@H]1O [AMP, ampelopsin] | – | did not show statistically significant differences | not substrates | did not show statistically significant differences | not substrates | 5.5 × 10^4 L/mol and ≈ 10^4 L/mol | – | – |
| O=c1c(O)c(-c2cc(O)c(O)c(OS(=O)(=O)O)c2)oc2cc(O)cc(O)c12 [M3′S, myricetin‐3′‐O‐sulfate] | exceeds 99% | almost five‐fold | substrate | more than two‐fold | substrate | – | saturable uptake | saturable uptake |
| O=c1c(O)c(-c2cc(O)c(O)c(O)c2)oc2cc(O)cc(O)c12 [MYR, myricetin] | – | did not show statistically significant differences | not substrates | did not show statistically significant differences | not substrates | – | – | – |
